The target in the assay is GSK 3α (Homo sapiens (Human), UniProt P49840). The assay can be described thus: GSK 3α enzyme inhibition (FRET, Z-LYTE; Method 2). The settings on record: read-out: IC50 Values for Enzyme Inhibition GSK3α. It counts as biochemical. Here is the method: The enzyme inhibitory activities of compounds disclosed herein are determined by FRET using synthetic peptides labelled with both donor and acceptor fluorophores (Z-LYTE, Invitrogen Ltd., Paisley, UK).
The inhibitory activities of compounds of the invention against the GSK 3α enzyme isoform (Invitrogen), are evaluated by determining the level of activation I phosphorylation of the target peptide. The GSK3-α protein (500 ng/mL, 2.5 μL) is mixed with the test compound (2.5 μL at either 4 μg/mL, 0.4 μg/mL, 0.04 μg/mL, or 0.004 μg/mL) for 2 hr at RT. The FRET peptide (8 μM, 2.5 μL), which is a phosphorylation target for GSK3α, and ATP (40 μM, 2.5 μL) are then added to the enzyme\compound mixture and the resulting mixture incubated for 1 hr. Development reagent (protease, 5 μL) is added for 1 hr prior to detection in a fluorescence microplate reader (Varioskan® Flash, ThermoFisher Scientific).
In all cases, the site-specific protease cleaves non-phosphorylated peptide only and eliminates the FRET signal. Phosphorylation levels of each reaction are calculated using the ratio of coumarin emission (donor) over fluorescein emission (acceptor), for which high ratios indicate high phosphorylation and low ratios indicate low phosphorylation levels.
This method follows the same steps as Method 1 above, but utilises a shorter period of mixing of the test compound (105 minutes instead of 2 hours) with the GSK3-α protein. In addition, the concentrations of test compound employed are either 10 μg/mL, 1 μg/mL, 0.1 μg/mL, or 0.01 μg/mL

pIC50: −log10 of the molar value.

What is called pIC50 is the negative decadic logarithm of the IC50, by convention in mol/L.

Sequence of GSK 3α (P49840 whole entry, canonical isoform): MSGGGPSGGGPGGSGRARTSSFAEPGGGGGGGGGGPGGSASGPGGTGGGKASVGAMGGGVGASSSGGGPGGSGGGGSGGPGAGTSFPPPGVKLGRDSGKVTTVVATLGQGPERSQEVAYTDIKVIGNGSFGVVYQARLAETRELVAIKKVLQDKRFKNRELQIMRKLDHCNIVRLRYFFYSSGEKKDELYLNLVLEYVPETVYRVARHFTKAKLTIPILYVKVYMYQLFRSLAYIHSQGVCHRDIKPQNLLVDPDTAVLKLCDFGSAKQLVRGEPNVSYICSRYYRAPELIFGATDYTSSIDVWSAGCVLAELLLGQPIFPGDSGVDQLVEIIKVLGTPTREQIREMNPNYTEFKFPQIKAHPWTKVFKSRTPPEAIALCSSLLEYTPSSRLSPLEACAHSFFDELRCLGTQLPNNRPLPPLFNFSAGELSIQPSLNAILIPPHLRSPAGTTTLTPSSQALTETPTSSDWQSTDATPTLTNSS

Regarding `COc1cc(Nc2cc(Oc3ccc(NC(=O)Nc4cc(C(C)(C)C)cc(NS(C)(=O)=O)c4OC)c4ccccc34)ccn2)cc(C(=O)NCCN2CCCC2)c1` [83(d), 3-((4-((4-(3-(5-(tert-butyl)-2-methoxy-3-(methysulfonamido)phenyl)ureido)naphthalen-1-yl)oxy)pyridin-2-yl)amino)-5-methoxy-N-(2-(pyrrolidin-1-yl)ethyl)benzamide], the negative logarithm of the IC50 (pIC50) is 5.99.
For `COc1cc(Nc2cc(Oc3ccc(NC(=O)Nc4cc(C(C)(C)C)cc(NS(C)(=O)=O)c4OC)c4ccccc34)ccn2)cc(C(=O)NCCN2CCCCC2)c1` [83(e), 3-((4-((4-(3-(5-(tert-butyl)-2-methoxy-3-(methylsulfonamido)phenyl)ureido)naphthalen-1-yl)oxy)pyridin-2-yl)amino)-5-methoxy-N-(2-(piperidin-1-yl)ethyl)benzamide] the value was 5.80.
The figure for `COc1c(NC(=O)Nc2ccc(Oc3ccnc(Nc4ccccc4)c3)c3ccccc23)cc(C(C)(C)C)cc1NS(=O)(=O)N1CCOCC1` [83(f), N-(5-(tert-butyl)-2-methoxy-3-(3-(4-((2-(phenylamino)pyridin-4-yl)oxy)naphthalen-1-yl)ureido)phenyl)morpholine-4-sulfonamide] is 4.84; for `COCCOCCOCCOc1cc(Nc2cc(Oc3ccc(NC(=O)Nc4cc(C(C)(C)C)cc(C(=O)NCCN)c4OC)c4ccccc34)ccn2)cc(OC)c1` [83(g), N-(2-aminoethyl)-5-(tert-butyl)-2-methoxy-3-(3-(4-((2-((3-methoxy-5-(2-(2-(2-methoxy-ethoxy)ethoxy)ethoxy)phenyl)amino)pyridin-4-yl)oxy)naphthalen-1-yl)ureido)benzamide] it is 5.66.
As to `COc1c(NC(=O)Nc2ccc(Oc3ccnc(Nc4ccccc4)c3)c3ccccc23)cc(C(C)(C)C)cc1C(=O)NC1CCN(C)CC1` [84(b), 3-[[4-[(2-Anilino-4-pyridyl)oxy]-1-naphthyl]carbamoylamino]-5-tert-butyl-2-methoxy-N-(1-methyl-4-piperidyl)benzamide], the pIC50 was 5.35.
For `COc1c(NC(=O)Nc2ccc(Oc3ccnc(Nc4ccccc4)c3)c3ccccc23)cc(C(C)(C)C)cc1C(=O)N[C@@H]1CCOC1` [84(c), 3-[[4-[(2-Anilino-4-pyridyl)oxy]-1-naphthyl]carbamoylamino]-5-tert-butyl-2-methoxy-N-[(3R)-tetrahydrofuran-3-yl]benzamide] the value was 5.31; for `COc1cc(CO)cc(Nc2cc(Oc3ccc(NC(=O)Nc4cc(C(C)(C)C)cc(NS(C)(=O)=O)c4OC)c4ccccc34)ccn2)c1` [84(f), 1-[5-tert-Butyl-3-(methanesulfonamido)-2-methoxyphenyl]-3-[4-[[2-[3-(hydroxymethyl)-5-methoxyanilino]-4-pyridyl]oxy]-1-naphthyl]urea], 5.47; for `C#Cc1cc(Nc2nccc(Oc3ccc(NC(=O)Nc4cc(C(C)(C)C)cc(C(N)=O)c4OC)c4ccccc34)n2)cc(C(=O)NCCN2CCOCC2)c1` [85(g), 5-tert-Butyl-3-[[4-[2-[3-ethynyl-5-(2-morpholinoethylcarbamoyl)anilino]-pyrimidin-4-yl]oxy-1-naphthyl]carbamoylamino]-2-methoxy-benzamide], 6.36.
The figure for `COc1cc(Nc2cc(Oc3ccc(NC(=O)Nc4cc(C(C)(C)C)cc(NS(C)(=O)=O)c4OC)c4ccccc34)ccn2)cc(C(=O)NCCN2CC[S+]([O-])CC2)c1` [85(j), 3-[[4-[[4-[[5-tert-Butyl-3-(methanesulfonanido)-2-methoxyphenyl]-carbamoylamino]-1-naphthyl]oxy]-2-pyridyl]amino]-5-methoxy-N-[2-(1-oxo-1,4-thiazinan-4-yl)ethyl]benzamide] is 6.13; for `COCCOCCOCCOc1cc(Nc2nccc(Oc3ccc(NC(=O)Nc4cc(C(C)(C)C)ccc4OC)c4ccccc34)n2)cc(OC)c1` [Example 8, 1-(5-(tert-Butyl)-2-methoxhenv)-3-(4-((2-((3-methoxy-5-(2-(2-(2-methoxyethoxy)ethoxy)-ethoxy)phenyl)amino)pyrimidin-4-yl)oxy)naphthalen-1-yl)urea] it is 5.00; for `COCCOCCOCCOc1cc(Nc2nccc(Oc3ccc(NC(=O)Nc4cc(N5CCOCC5)ccc4OC)c4ccccc34)n2)cc(OC)c1` [Example 12, 1-(4-((2-((3-Methoxy-5-(2-(2-(2-methoxyethoxy)ethoxy)ethoxy)phenyl)amino)-pyrmidin-4-yl)oxy)naphthalen-1-yl)-3-(2-methoxy-5-morpholinophenyl)urea] it is 4.95.
For `COCCOCCOCCOc1cc(Nc2nccc(Oc3ccc(NC(=O)Nc4cc(C(C)(C)C)cc(C(=O)N(C)C)c4OC)c4ccccc34)n2)cc(OC)c1` [Example 19, 5-(tert-yl)-)-2-methoxy-3-(3-(4-((2-((3-methoxy-5-(2-(2-(2-methoxyethoxy)ethoxy)-ethoxy)phenyl)amino)pyrimidin-4-yl)oxy)naphthalen-1-yl)ureido-N,N-dimethylbenzamide] the value was 5.35; for `COCCOCCOCCOc1cc(Nc2nccc(Oc3ccc(NC(=O)Nc4cc(C(C)(C)C)cc(C(=O)O)c4OC)c4ccccc34)n2)cc(OC)c1` [Example 21, 5-(tert-Butyl)-2-methoxy-3-(3-(4-((2-((3-methoxy-5-(2-(2-(2-methoxyethoxy)ethoxy)-ethoxy)phenyl)amino)pyrimidin-4-yl)oxy)naphthalen-1-yl)ureido)benzoic acid], 5.79.
As to `COCCOCCOCCOc1cc(Nc2nccc(Oc3ccc(NC(=O)Nc4cc(C(C)(C)C)cc(C#N)c4OC)c4ccccc34)n2)cc(OC)c1` [Example 22, 1-(5-(tert-Butyl)-3-cyano-2-methoxyphenyl)-3-(4-((2-((3-methoxy-5-(2-(2-(2-methoxy-ethoxy)ethoxy)ethoxy)phenyl)amino)pyrimidin-4-yl)oxy)naphthalen-1-yl)urea], the pIC50 was 5.67.
For `COCCOCCOCCOc1cc(Nc2nccc(Oc3ccc(NC(=O)Nc4cc(C(C)(C)C)cc(N)c4OC)c4ccccc34)n2)cc(OC)c1` [Example 25, 1-(3-Amino-5-(tert-butyl)-2-methoxyphenyl)-3-(4-((2-((3-methoxy-5-(2-(2-(2-methoxy-ethoxy)ethoxy)ethoxy)phenyl)amino)pyrimidin-4-yl)oxy)naphthalen-1-yl)urea] the value was 5.72; for `COc1cc(Nc2nccc(Oc3ccc(NC(=O)Nc4cc(C(C)(C)C)cc(NS(C)(=O)=O)c4OC)c4ccccc34)n2)cc(C(=O)NCCOCCOCCC(=O)O)c1` [Example 26], 7.29; for `COCCOCCOCCOc1cc(Nc2nccc(Oc3ccc(NC(=O)Nc4cc(C(C)(C)C)cc(Nc5ncccn5)c4OC)c4ccccc34)n2)cc(OC)c1` [Example 28, 1-(5-(tert-Butyl)-2-methoxy-3-(pyrimidin-2-ylamino)phenyl)-3-(4-((2-((3-methoxy-5-(2-(2-(2-methoxyethoxy)ethoxy)ethoxy)phenyl)amino)pyrimidin-4-yl)oxy)naphthalen-1-yl)urea], 5.49.
For `COc1cc(Nc2nccc(Oc3ccc(NC(=O)Nc4cc(C(C)(C)C)cc(NS(C)(=O)=O)c4OC)c4ccccc34)n2)cc(OCCOCCOCCC(=O)O)c1` [Example 30, 3-(2-(2-(3-((4-((4-(3-(5-(tert-Butyl)-2-methoxy-3-(methylsulfonamido)phenyl)ureido)-naphthalen-1-yl)oxy)pyrimidin-2-yl)amino)-5-methoxyphenoxy)ethoxy)ethoxy)propanoic acid] the value was 6.82.
For the molecule `COc1cc(Nc2nccc(Oc3ccc(NC(=O)Nc4cc(C(C)(C)C)cc(NS(C)(=O)=O)c4OC)c4ccccc34)n2)cc(OCCOCCC(=O)O)c1` [Example 31, 3-(2-(3-((4-((4-(3-(5-(tert-Butyl)-2-methoxy-3-(methylsulfonamido)phenyl)ureido)-naphthalen-1-yl)oxy)pyrimidin-2-yl)amino)-5-methoxyphenoxy)ethoxy)propanoic acid], the pIC50 is 6.87.
For `CNC(=O)c1cc(N2CCOCC2)cc(NC(=O)Nc2ccc(Oc3ccnc(Nc4cc(OC)cc(OCCOCCOCCOC)c4)n3)c3ccccc23)c1OC` [Example 32, 2-Methoxy-3-(3-(4-((2-((3-methoxy-5(2-(2-(2-methoxyethoxy)ethoxy)ethoxy)phenyl)-amino)pyrimidin-4-yl)oxy)naphthalen-1-yl)ureido)-N-methyl-5-morpholinobenzamide] the value was 6.20.
For `COCCOCCOCCOc1cc(Nc2nccc(Oc3ccc(NC(=O)Nc4cc(C(C)(C)C)cc(C(=O)NCc5ccccc5)c4OC)c4ccccc34)n2)cc(OC)c1` [Example 38, N-Benzyl-5-(tert-butyl)-2-methoxy-3-(3-(4-((2-((3-methoxy-5-(2-(2-(2-methoxyethoxy)-ethoxy)ethoxy)phenyl)amino)pyrimidin-4-yl)oxy)naphthalen-1-yl)ureido)benzamide] the value was 4.97; for `COCCOCCOCCOCCOCCOCCOCCNC(=O)c1cc(Nc2nccc(Oc3ccc(NC(=O)Nc4cc(C(C)(C)C)cc(NS(C)(=O)=O)c4OC)c4ccccc34)n2)cc(OC)c1` [Example 40, 3-((4-((4-(3-(5-(tert-Butyl)-2-methoxy-3-(methylsulfonamido)phenyl)ureido)naphthalen-1-yl)oxy)pyrimidin-2-yl)amino)-N-(2,5,8,11,14,17,20-heptaoxadocosan-22-yl)-5-methoxy-benzamide], 6.42.

The values above are taken from US9481648B2, “Kinase inhibitors” (Respivert Limited, priority 2013, dated 2016).
